In PubChem BioAssay (NCI) one finds GI50 and TGI data, which are given here for 13 compounds.

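Where inhibition never reached the appropriate level, the endpoint shown equals the highest concentration tested. Otherwise, values were interpolated linearly from a five-concentration, 48-hour dose response in 96-well plates. GI50: concentration for 50% inhibition of growth. TGI denotes the concentration required for complete inhibition of growth.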

Test in all cases: NCI anticancer screen, dose series, 48 h
Assay [1] has as its system ACHN renal.
Assay [2] has as its system DU-145 prostate.
The test system of assay [3] is HOP-62 NSCLC.
Assay [4] deals with MCF7 breast.
Assay [5] concerns OVCAR-5 ovarian.
Assay [6] deals with SF-295 CNS.
The subject of assay [7] is UO-31 renal.
Assay [8] relates to IGROV1 ovarian.
In assay [9] the test system is NCI-H226 lung.
Assay [10] has as its system SN12C renal.

For `CC(=O)Oc1ccccc1C(=O)N=C1[Se]CCN1C(=O)c1ccccc1OC(C)=O`, the GI50 in assay [1] is 1.4 µM; in assay [2], 0.61 µM; in assay [3] it was 0.546 µM; in assay [4], 1.12 µM; in assay [5], 0.839 µM; in [6] it was 1.43 µM. Further, in [7], the GI50 was 0.424 µM. Further, the TGI in assay [1] is 2.86 µM; in assay [2], 2.18 µM; in assay [3] it was 1.88 µM; in [4], 5.06 µM; in assay [5], 6.11 µM; in [6] it was 2.8 µM. Also, the TGI in assay [7] was 1.53 µM.
In the case of `O=C1c2ccn(CCCCNC(CO)(CO)CO)c2C(=O)c2c1c(O)c1ccccc1c2O`, the GI50 is 0.56 µM in [1]; 1.89 µM in assay [2]; 3.82 µM in assay [3]; 2.01 µM in [8]; 2.81 µM in assay [9]; 1.91 µM in [5]. Moreover, the GI50 was 0.719 µM in assay [6], 4.39 µM in assay [10] and 23.7 µM in assay [7]. Also, the TGI in assay [1] was 1.89 µM; in assay [2], 4.69 µM; in [3], 8.77 µM; in [8], more than 100 µM; in assay [9], 9.35 µM; in [5], 4.4 µM. Moreover, the TGI in [6] is 2.24 µM; in [10], 8.83 µM; in assay [7], more than 100 µM.
Take `O=C(CSc1nnc(-c2ccccc2NC(=O)C(F)(F)F)c(=O)[nH]1)NC(=O)Nc1ccccc1`: the TGI in assay [3], in [8], in [9], in assay [5], in assay [6] and in [10] was more than 100 µM throughout. This compound also yielded a TGI in assay [7] of more than 100 µM.
For the compound `CCOC(=O)c1[nH]c(COC(C)=O)c(CCCOC(C)=O)c1CCCOC(C)=O`, the TGI in assay [1], in assay [3], in assay [8], in assay [9], in [5] and in assay [6] was more than 100 µM in each case. The compound also had a TGI in assay [10] of more than 100 µM.
Consider `COC(=O)/C=C/C1C(C(=O)OC)C2(C(=O)OC)CCC1(C(=O)OC)N2` (centres undefined), for which the TGI in [1], in assay [3], in assay [8], in assay [9], in [5] and in assay [6] was more than 100 µM in each case. For the same compound, the TGI in assay [10] and in assay [7] was more than 100 µM in each case.
Turning to `CC(=O)c1c(CBr)n([O-])c2ccccc2[n+]1=O`, the GI50 was 8.12 µM in assay [1]; 12.8 µM in assay [2]; 15.6 µM in assay [3]; 13.6 µM in assay [8]; 13.4 µM in assay [9]; 18.5 µM in assay [5]. Moreover, the GI50 in assay [6] is 19.8 µM; in [10], 14.1 µM; in assay [7], 5.51 µM. In addition, the TGI was found to be 20.4 µM in [1]; 25.5 µM in assay [2]; 29.7 µM in assay [3]; 29.2 µM in assay [8]; 28 µM in assay [9]; 44.4 µM in assay [5]. Moreover, the TGI in assay [6] is 43.8 µM; in assay [10], 27.3 µM; in assay [7], 19 µM.
In the case of `C#CC(=O)Nc1cccc(Nc2nc3c(c(NCc4ccccc4)n2)CCCC3)c1`, the GI50 in assay [1] is less than 0.0113 µM; in [2], 0.446 µM; in assay [3], 0.0612 µM; in assay [8] it was less than 0.01 µM; in assay [4], 0.296 µM; in [9], 0.147 µM. The GI50 in [6] is 0.0152 µM; in assay [7], less than 0.01 µM. Further, the TGI was less than 0.0317 µM in assay [1]; 1.95 µM in assay [2]; 0.435 µM in [3]; 0.0598 µM in assay [8]; 1.81 µM in [4]; 0.551 µM in [9]. Further, the TGI in assay [6] is 0.0361 µM; in assay [7], less than 0.01 µM.
With `O=C(CCC/C(CC(=O)c1ccc(Br)cc1)=N\O)Nc1ccccc1`, the TGI in [1], in assay [3], in assay [8], in assay [9], in assay [5] and in [6] was more than 100 µM throughout. The TGI in [10] and in [7] was more than 100 µM throughout.
Turning to `CCOC(=O)CCc1c(C)c2c(OC(C)=O)cc(OC(C)=O)cc2oc1=O`, the TGI in assay [1] was more than 100 µM; in assay [3], more than 100 µM; in [5], more than 100 µM; in [6], more than 100 µM; in [10], 87 µM; in assay [7], more than 100 µM.
As to `CCCCCCCCCc1cc(=O)c2c(O)cccc2o1`, the TGI in [1], in assay [3], in assay [8], in assay [9], in [5] and in assay [6] was more than 100 µM throughout. For the same compound, the TGI in assay [10] and in [7] was more than 100 µM in each case.
On to `N#CC(/C(=N/NC(=O)C(=O)NN)C(=O)NC12CC3CC(CC(C3)C1)C2)c1ccccc1` (centres undefined), for which the TGI in assay [1], in assay [3], in [8], in assay [9], in [5] and in assay [6] was more than 100 µM each time. Moreover, the TGI in assay [10] and in [7] was more than 100 µM each time.
Turning to `O=C(/C=C/c1c(O)ccc2ccccc12)c1ccc2ccccc2c1`, the TGI in assay [1], in assay [3], in [8], in assay [9], in assay [5] and in assay [6] was more than 100 µM throughout. For the same compound, the TGI in [10] and in assay [7] was more than 100 µM throughout.
On to `O=C(CCC(=O)Nc1cccc(Cl)c1)CC(=O)c1ccc(Cl)cc1`, for which the TGI in assay [1], in [3], in assay [8], in assay [9], in [5] and in assay [6] was more than 100 µM throughout. Further, the TGI in assay [10] and in assay [7] was more than 100 µM throughout.
